Reference: patent publication US10533014B2, “Immunoregulatory agents” (Flexus Biosciences, Inc., priority 2014, dated 2020)

Target: T1, human IDO1 (Homo sapiens, UniProt P14902)
T1 construct: expressed in transfected cells
Assay: IDO inhibition assay in HEK293 cells stably expressing human IDO1 (Example 252)
Assay type: cell-based
Conditions: 20 hours incubation, kynurenine by Ehrlich reagent, absorbance at 490 nm, read-out: HEK Human IDO-1 Potency
Description: 1HEK293 cells were transfected with a pCDNA-based mammalian expression vector harboring human IDO1 cDNA (NM 002164.2) by electroporation. They were cultured in medium (DMEM with 10% FBS) containing 1 mg/ml G418 for two weeks. Clones of HEK293 cells that stably expressed human IDO1 protein were selected and expanded for IDO inhibition assay.
The human IDO1/HEK293 cells were seeded at 10,000 cells per 50 μL per well with RPMI/phenol red free media contains 10% FBS in a 384-well black wall clear bottom tissue culture plate (Matrix Technologies LLC) 100 nL of certain concentration of compound was then added to each well using ECHO liquid handling systems. The cells were incubated for 20 hours in 37° C. incubator with 5% CO2.
The compound treatments were stopped by adding Trichloroacetic Acid (Sigma-Aldrich) to a final concentration at 0.2%. The cell plate was further incubated at 50° C. for 30 minute. The equal volume supernatant (20 μL) and 0.2% (w/v) Ehrlich reagent (4-dimethylaminobenzaldehyde, Sigma-Aldrich) in glacial acetic acid were mixed in a new clear bottom 384-well plate. This plate was then incubated at room temperature for 30 minute. The absorbance at 490 nm was measured on Envision plate reader.

T1 sequence (P14902 whole entry): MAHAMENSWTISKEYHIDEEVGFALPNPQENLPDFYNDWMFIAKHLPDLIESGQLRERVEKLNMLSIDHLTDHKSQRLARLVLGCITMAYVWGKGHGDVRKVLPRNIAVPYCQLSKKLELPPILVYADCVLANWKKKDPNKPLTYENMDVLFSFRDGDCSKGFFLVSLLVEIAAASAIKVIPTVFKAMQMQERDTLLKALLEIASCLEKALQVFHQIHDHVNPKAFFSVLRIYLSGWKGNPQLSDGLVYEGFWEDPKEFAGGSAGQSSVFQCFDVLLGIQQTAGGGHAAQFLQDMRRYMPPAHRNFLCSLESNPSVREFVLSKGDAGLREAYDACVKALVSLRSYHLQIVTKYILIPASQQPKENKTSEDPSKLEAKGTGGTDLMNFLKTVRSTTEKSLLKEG

Row | Molecule | IC50 [nM]
1 | CC(C(=O)Nc1ccc(Cl)cc1)C1CCC(c2ccnc3c2ncn3C)CC1 (mixture of isomers) [Example 250, (+/−)-Cis and trans-N-(4-chlorophenyl)-2-(4-(3-methyl-3H-imidazo[4,5-b]pyridin-7-yl)cyclohexyl)propanamide] | < 250
2 | C[C@@H](C(=O)Nc1cccc(C(F)F)c1)[C@H]1CC[C@@H](c2ccnc3ccc(F)cc32)CC1 (relative stereo) [Example 63, (R)-N-(3-(difluoromethyl)phenyl)-2-((cis)-4-(6-fluoroquinolin-4-yl)cyclohexyl)propanamide] | < 50
3 | C[C@@H](C(=O)NC1CCCCC1)[C@H]1CC[C@@H](c2ccnc3ccc(F)cc32)CC1 (relative stereo) [Example 141, (R)-N-cyclohexyl-2-((cis)-4-(6-fluoroquinolin-4-yl)cyclohexyl) propanamide] | < 50
4 | CC(C(=O)O)c1ccc(C[C@@H](C(=O)Nc2ccc(Cl)cc2)[C@H]2CC[C@@H](c3ccnc4ccccc43)CC2)cc1 (single isomer, unassigned) [Example 87b] | < 50
5 | COCC(C(=O)Nc1ccc(Cl)cc1)N1CCN(c2ccnc3ccc(F)cc23)CC1 (single isomer, unassigned) [Example 136, N-(4-chlorophenyl)-2-(4-(6-fluoroquinolin-4-yl)piperazin-1-yl)-3-methoxypropanamide] | > 250
6 | CC(C(=O)O)c1ccc(C[C@@H](C(=O)Nc2ccc(Cl)cc2)[C@H]2CC[C@@H](c3ccnc4ccc(F)cc43)CC2)cc1 (single isomer, unassigned) [Example 139] | < 50
7 | O=C(C[C@H]1CC[C@@H](c2ccnc3ccc(F)cc32)CC1)NC1CCCCC1 [Example 142, N-cyclohexyl-2-((cis)-4-(6-fluoroquinolin-4-yl)cyclohexyl) acetamide] | < 250
8 | N-(4-chlorophenyl)-2-(cis-4-(6-fluoroquinolin-4-yl)-1-hydroxycyclohexyl)propanamide [Example 231] | < 250
9 | N-(4-chlorophenyl)-2-(cis-4-(6-fluoroquinolin-4-yl)-1-hydroxycyclohexyl)propanamide [Example 232] | < 50
10 | N-(4-chlorophenyl)-2-(trans-4-(6-fluoroquinolin-4-yl)-1-hydroxycyclohexyl)propanamide [Example 229] | < 50
11 | N-(4-chlorophenyl)-2-(trans-4-(6-fluoroquinolin-4-yl)-1-hydroxycyclohexyl)propanamide [Example 230] | < 250
